Results on one compound are retold here after patent US7902254B1, “Method for treating conditions mediated by PPAR using macelignan” (Newtree Co., Ltd., priority 2005, dated 2011).

The test system of assay [1] is target genes of PPARα (CD36, CPT-1, PDK4, ACO). Put plainly: Expression of target genes of PPARα in SK-HEP-1 liver cells (RT-PCR). In kind it is cell-based. The settings on record: SK-HEP-1 cells, 1, 5, 10 and 25 μM, 24 hours, vs control. As for the experimental part:
SK-HEP-1 liver cells ([…]) cultured in a DMEM medium containing 10% FBS were pipetted into a multi-well plate in a cell count of 1×10^6 cells per well, and then further cultured for 5 hours. Different concentrations (1, 5, 10 and 25 μM) of macelignan were added to the medium of the cultured cells, and then the cells were left for 24 hours. The cells were collected and the total RNA was isolated by using TRIZOL (Invitrogen, USA). The total RNA isolated as described above was determined and cDNA was synthesized by using reverse transcriptase at 42° C. for 20 minutes with same amounts of RNA. The cDNA was subjected to RT-PCR by repeating 30 cycles of 95° C./1 minute, 56° C./30 seconds and 72° C./2 minutes with the following primers and Taq polymerase: primers for CD36 amplification (SEQ ID NO: 5(CGGCGATGAGAAAGCAGAA) and SEQ ID NO: 6(CAACCAGGCCCAGGAGC)), primers for CPT-1 amplification (SEQ ID NO: 7([…]) and SEQ ID NO: 8([…])), primers for PDK4 amplification (SEQ ID NO: 9([…]) and SEQ ID NO: 10(ATAAGTTAAGTGGGCCTGG)), and primers for ACO amplification (SEQ ID NO: 11([…]) and SEQ ID NO: 12([…])).

For a further assay, the target named is T1, human PPARγ (Homo sapiens, UniProt P37231).
T1 construct: expressed in transfected cells; host or cells: COS-7 monkey kidney cells (ATCC CRL-1651)
T1 sequence (P37231 176-477 isoform P37231-2): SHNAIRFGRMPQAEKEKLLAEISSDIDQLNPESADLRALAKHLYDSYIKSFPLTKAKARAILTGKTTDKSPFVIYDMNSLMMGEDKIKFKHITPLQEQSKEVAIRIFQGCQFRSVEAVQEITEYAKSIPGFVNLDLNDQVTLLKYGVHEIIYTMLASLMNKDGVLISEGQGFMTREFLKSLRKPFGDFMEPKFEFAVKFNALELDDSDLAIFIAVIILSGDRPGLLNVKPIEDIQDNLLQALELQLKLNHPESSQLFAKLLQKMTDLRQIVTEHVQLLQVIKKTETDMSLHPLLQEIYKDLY
The assay can be described thus: PPARγ activation, luciferase reporter in transfected COS-7 cells. In kind it is cell-based. The settings on record: 24 hours. How it is done:
Then, the polynucleotide was cloned between the restriction enzyme sites of BamHI and KpnI of pFA vector (Stratagene, USA). […] RT-PCR was performed by synthesizing cDNA using reverse transcriptase at 42° C. for 60 minutes, and 30 cycles of 1 minute at 95° C., 30 seconds at 54° C. and 2 minutes at 72° C. using Taq polymerase. […] Then, the polynucleotide was cloned between the restriction enzyme sites of XbaI and KpnI of pFA vector (Stratagene, USA).
For orientation: Reporter assays use an easily measured gene product as a stand-in for the process of interest.

For assay [2], the system named is 3T3-L1 mouse pre-adipocytes. The assay can be described thus: Stimulation of adipocyte differentiation. In kind it is cell-based. The settings on record: 10 μM, 3T3-L1, vs 0.01% DMSO control and 10 μM troglitazone. How it is done:
3T3-L1 mouse pre-adipocytes cultured in a DMEM medium containing 10% FBS were pipetted into a multi-well plate in a cell count of 1×10^6 cells per well, and then further cultured for 5 hours. To the cultured cells, 10 μM of macelignan was added and then left for 24 hours. Adipocyte differentiation was induced by substituting the medium of the cultured cells with MDI (0.5 mM 3-isobutyl-1-methylxanthine, 0.5 uM dexamethasone, 10 ug/ml insulin) medium (Am. J. Physiol. Cell Physiol., 280: C807-C813, 2001). The shape of the cells was observed by an optical microscope two day after the substitution of MDI medium.

For assay [3], the system named is obesity/diabetes mice (db/db mice). Put plainly: Effect upon fatty liver in obesity/diabetes mouse model. The format is in vivo. The settings on record: 25 mg/kg oral, 14 days. How it is done:
To investigate effects of macelignan upon the prevention and treatment of fatty liver, seven mice of 10 week-aged obesity/diabetes mice (db/db mice) were used per test group. To the test groups, macelignan suspended in 0.25% carboxymethyl cellulose was orally administered in an administration dose of 5 mg/kg (body weight), 10 mg/kg (body weight) and 25 mg/kg (body weight), once per day at a predetermined time, for 14 days in all. As a control, 0.25% carboxymethyl cellulose was orally administered alone to normal mice in the same dose as administered to the test group. As another control, 0.25% carboxymethyl cellulose was orally administered alone to obesity/diabetes mice in the same dose as administered to the test group. As still another control, 10 mg/kg (body weight) of troglitazone was orally administered. Fourteen days after the oral administration, the liver tissue was isolated and crushed to extract the total lipid and fat contents, and then the triglyceride content accumulated in the liver tissue was measured.

For `COc1cc(C[C@H](C)[C@H](C)Cc2ccc3c(c2)OCO3)ccc1O` (single isomer, unassigned) [macelignan], in assay [1], the “mRNA expression of CD36, CPT-1, PDK-4 and ACO” value is given as “significantly increased”. Further, the “luciferase activity higher than the control (PPARγ)” value on human PPARγ (25 μM, control 0.01% DMSO) is listed as “about 10.4 times”. The PPARγ activity entry at human PPARγ (1, 5, 10 and 25 μM, p<0.01 vs control) is “increased PPARγ activity in a concentration-dependent manner”. In addition, the adipocyte differentiation entry in assay [2] is “adipocyte differentiation was stimulated”. For the same compound, in assay [3], the “triglyceride content in the liver tissue” value is 6.30 ± 11.59 mg/g.
